From patent US7723527B2 (Janssen Pharmaceutica NV, priority 2003, dated 2010) come the findings set out here.

For the test, the target named is T1, human histamine H4 receptor (Homo sapiens, UniProt Q9H3N8).
T1 construct: expressed in transfected cells; host or cells: SK-N-MC cells or COS7 cells, transiently transfected; cell membranes used
Nature of the test: Binding assay on recombinant human histamine H4 receptor (3H-histamine displacement). Particulars: competition binding with 3H-histamine; membranes of SK-N-MC or COS7 cells expressing human H4 receptor; Cheng-Prusoff, KD 5 nM, ligand 5 nM. An outline of the steps:
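Membranes from SK-N-MC or COS7 cells transiently transfected with human H4R, incubated with ^3H-histamine (5-70 nM) at room temperature for 45 min, nonspecific binding with 10,000 nM histamine. Filtration and scintillation counting; compound affinity from displacement of ^3H-ligand across varying concentrations.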

SMILES strings stand for the structures.

T1 sequence (Q9H3N8 whole entry): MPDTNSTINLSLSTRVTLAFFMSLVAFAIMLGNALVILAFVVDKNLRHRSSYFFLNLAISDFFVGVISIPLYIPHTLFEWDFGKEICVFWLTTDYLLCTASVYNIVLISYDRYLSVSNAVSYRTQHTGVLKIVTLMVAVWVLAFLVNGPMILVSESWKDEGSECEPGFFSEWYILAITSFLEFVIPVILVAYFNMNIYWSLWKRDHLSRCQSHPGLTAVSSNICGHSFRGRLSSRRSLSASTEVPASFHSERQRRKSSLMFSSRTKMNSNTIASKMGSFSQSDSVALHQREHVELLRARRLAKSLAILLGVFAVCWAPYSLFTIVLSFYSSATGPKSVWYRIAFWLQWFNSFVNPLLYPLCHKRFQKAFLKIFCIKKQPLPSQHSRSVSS

As a reminder, the Ki is the dissociation constant of the complex between target and ligand, obtained from inhibition or displacement. As to `CN1CCN(CCCOc2ccc(-c3nc4cc(Cl)ccc4[nH]3)cc2Cl)CC1` [Example 43, 5-Chloro-2-{3-chloro-4-[3-(4-methyl-piperazin-1-yl)-propoxy]-phenyl}-1H-benzoimidazole], the Ki turned out to be 82 nM.

Turning to `Cc1cccc2[nH]c(-c3cccc(OCCCCC4CCN(C)CC4)c3)nc12` [Example 96, 7-Methyl-2-{3-[4-(1-methyl-piperidin-4-yl)-butoxy]-phenyl}-1H-benzoimidazole], the Ki came out at 1 nM.

Take `Cc1cc2nc(-c3cccc(OCCCCN4CCN(C)CC4)c3)[nH]c2cc1C` [Example 29, 5,6-Dimethyl-2-{3-[4-(4-methyl-piperazin-1-yl)-butoxy]-phenyl}-1H-benzoimidazole]: the Ki is 326 nM.

With `Cc1cccc2[nH]c(-c3ccc(OCCCN4CCCN(C)CC4)c(Cl)c3)nc12` [Example 78, 2-{3-Chloro-4-[3-(4-methyl-[1,4]diazepan-1-yl)-propoxy]-phenyl}-4-methyl-1H-benzoimidazole], the Ki amounted to 21 nM.

For the molecule `Cc1cc(OCCCC2=CCN(C)CC2)ccc1-c1nc2c(C)cc(Cl)cc2[nH]1` [Example 93, 6-Chloro-4-methyl-2-{2-methyl-4-[3-(1-methyl-1,2,3,6-tetrahydro-pyridin-4-yl)-propoxy]-phenyl}-1H-benzoimidazole], the inhibitory constant (Ki) worked out at 7 nM.

Regarding `COc1ccc2[nH]c(-c3ccc(OCCCN4CCN(C)CC4)c(Cl)c3)nc2c1` [Example 51, 2-{3-Chloro-4-[3-(4-methyl-piperazin-1-yl)-propoxy]-phenyl}-5-methoxy-1H-benzoimidazole], the Ki amounted to 278 nM.

Turning to `Cc1cc(-c2nc3cc(Cl)ccc3[nH]2)ccc1OCCCN1CCN(C)CC1` [Example 38, 5-Chloro-2-{3-methyl-4-[3-(4-methyl-piperazin-1-yl)-propoxy]-phenyl}-1H-benzoimidazole], the Ki came out at 65 nM.

As to `CN1CCC(CCCCOc2nccc(-c3nc4c(Cl)cccc4[nH]3)c2Cl)CC1` [Example 160, 4-Chloro-2-{3-chloro-2-[4-(1-methyl-piperidin-4-yl)-butoxy]-pyridin-4-yl}-1H-benzoimidazole], the Ki came out at 53 nM.

With `Cc1c(F)ccc2[nH]c(-c3cccc(OCCCCC4CCN(C)CC4)c3)nc12` [Example 95, 6-Fluoro-7-methyl-2-{3-[4-(1-methyl-piperidin-4-yl)-butoxy]-phenyl}-1H-benzoimidazole], the Ki worked out at 4 nM.

For `Cc1cc(Cl)cc2[nH]c(-c3cccc(OCCCCC4CCN(C)CC4)c3)nc12` [Example 98, 5-Chloro-7-methyl-2-{3-[4-(1-methyl-piperidin-4-yl)-butoxy]-phenyl}-1H-benzoimidazole], the inhibition constant (Ki) is 28 nM.

With `Cc1cc(OCCOC2CCN(C)CC2)ccc1-c1nc2c(C)cc(Cl)cc2[nH]1` [Example 92, 6-Chloro-4-methyl-2-{2-methyl-4-[2-(1-methyl-piperidin-4-yloxy)-ethoxy]-phenyl}-1H-benzoimidazole], the Ki came to 113 nM.

Turning to `Cc1cccc2[nH]c(-c3ccnc(OCCCCC4CCN(C)CC4)c3)nc12` [Example 146, 4-Methyl-2-{2-[4-(1-methyl-piperidin-4-yl)-butoxy]-pyridin-4-yl}-1H-benzoimidazole], the Ki came out at 5 nM.

For `Cc1c(-c2nc3c(C)cc(Cl)cc3[nH]2)ccnc1OCCCCC1CCN(C)CC1` [Example 157, 6-Chloro-4-methyl-2-{3-methyl-2-[4-(1-methyl-piperidin-4-yl)-butoxy]-pyridin-4-yl}-1H-benzoimidazole], the Ki turned out to be 28 nM.

On to `CCN1CCC(CCCCOc2cc(-c3nc4c(C)c(C)ccc4[nH]3)ccn2)CC1` [Example 154, 2-{2-[4-(1-Ethyl-piperidin-4-yl)-butoxy]-pyridin-4-yl}-4,5-dimethyl-1H-benzoimidazole], for which the Ki is 111 nM.

For the molecule `Cc1cccc2[nH]c(-c3ccc(OCCCN4CCN(C)CC4)cc3Cl)nc12` [Example 73, 2-{2-Chloro-4-[3-(4-methyl-piperazin-1-yl)-propoxy]-phenyl}-4-methyl-1H-benzoimidazole], the Ki is 69 nM.

`Cc1c(OCCCCC2CCN(C)CC2)cccc1-c1nc2c(C)c(F)ccc2[nH]1` [Example 101, 6-Fluoro-7-methyl-2-{2-methyl-3-[4-(1-methyl-piperidin-4-yl)-butoxy]-phenyl}-1H-benzoimidazole]: the Ki was determined as 55 nM.

With `Cc1ccc2[nH]c(-c3ccc(OCCCC4=CCN(C)CC4)nc3)nc2c1C` [Example 124, 4,5-Dimethyl-2-{6-[3-(1-methyl-1,2,3,6-tetrahydro-pyridin-4-yl)-propoxy]-pyridin-3-yl}-1H-benzoimidazole], the Ki is 86 nM.

For `Cc1cc(Cl)cc2[nH]c(-c3ccc(OCCCN4CCCN(C)CC4)cc3Cl)nc12` [Example 77, 6-Chloro-2-{2-chloro-4-[3-(4-methyl-[1,4]diazepan-1-yl)-propoxy]-phenyl}-4-methyl-1H-benzoimidazole], the Ki amounted to 4 nM.

Consider `CN1CCC(CCCCOc2cc(-c3nc4cc(Cl)c(F)cc4[nH]3)c(Br)cn2)CC1` [Example 174, 2-{5-Bromo-2-[4-(1-methyl-piperidin-4-yl)-butoxy]-pyridin-4-yl}-5-chloro-6-fluoro-1H-benzoimidazole], for which the Ki amounted to 31 nM.

`Cc1c(Cl)ccc2[nH]c(-c3ccnc(OCCCCC4CCN(C)CC4)c3Cl)nc12` [Example 164, 5-Chloro-2-{3-chloro-2-[4-(1-methyl-piperidin-4-yl)-butoxy]-pyridin-4-yl}-4-methyl-1H-benzoimidazole]: the Ki stood at 7 nM.

On to `CN1CCN(CCCOc2ccc(-c3nc4cc5c(cc4[nH]3)OCO5)c(Cl)c2)CC1` [Example 76, 6-{2-Chloro-4-[3-(4-methyl-piperazin-1-yl)-propoxy]-phenyl}-5H-[1,3]dioxolo[4′,5′:4,5]benzo[1,2-d]imidazole], for which the Ki was 121 nM.

In the case of `Cc1ccc2[nH]c(-c3ccc(OCCCN4CCN(C)CC4)c(Cl)c3)nc2c1` [Example 39, 2-{3-Chloro-4-[3-(4-methyl-piperazin-1-yl)-propoxy]-phenyl}-5-methyl-1H-benzoimidazole], the Ki came to 66 nM.

For the molecule `Cc1cnc(OCCCCC2CCN(C)CC2)cc1-c1nc2cc(C(C)(C)C)ccc2[nH]1` [Example 167, 5-tert-Butyl-2-{5-methyl-2-[4-(1-methyl-piperidin-4-yl)-butoxy]-pyridin-4-yl}-1H-benzoimidazole], the Ki is 4 nM.

As for `CN1CCN(CCCOc2ccc(-c3nc4cc(C(C)(C)C)ccc4[nH]3)c(Cl)c2)CC1` [Example 32, 5-tert-Butyl-2-{2-chloro-4-[3-(4-methyl-piperazin-1-yl)-propoxy]-phenyl}-1H-benzoimidazole], the Ki was found to be 93 nM.

Take `Cc1cc2[nH]c(-c3ccc(OCCCC4CCN(C)CC4)cc3)nc2cc1Cl` [Example 60, 5-Chloro-6-methyl-2-{4-[3-(1-methyl-piperidin-4-yl)-propoxy]-phenyl}-1H-benzoimidazole]: the Ki stood at 39 nM.

Regarding `Cc1ccc2[nH]c(-c3ccnc(OCCCCC4CCN(C)CC4)c3)nc2c1C` [Example 149, 4,5-Dimethyl-2-{2-[4-(1-methyl-piperidin-4-yl)-butoxy]-pyridin-4-yl}-1H-benzoimidazole], the inhibition constant (Ki) was determined as 4 nM.

For the molecule `CN1CCC(CCCCOc2cc(-c3nc4cc(Cl)ccc4[nH]3)c(Br)cn2)CC1` [Example 175, 2-{5-Bromo-2-[4-(1-methyl-piperidin-4-yl)-butoxy]-pyridin-4-yl}-5-chloro-1H-benzoimidazole], the Ki was 6 nM.

With `Cc1cc(Cl)cc2[nH]c(-c3ccc(OCCCC4CCN(C)CC4)cc3F)nc12` [Example 66, 6-Chloro-2-{2-fluoro-4-[3-(1-methyl-piperidin-4-yl)-propoxy]-phenyl}-4-methyl-1H-benzoimidazole], the Ki is 32 nM.

Consider `Cc1cc(OCCCC2CCNCC2)ccc1-c1nc2c(C)cc(Cl)cc2[nH]1` [Example 88, 6-Chloro-4-methyl-2-[2-methyl-4-(3-piperidin-4-yl-propoxy)-phenyl]-1H-benzoimidazole], for which the Ki worked out at 52 nM.

Regarding `Cc1cnc(OCCCCC2CCN(C)CC2)cc1-c1nc2c(C)c(C)ccc2[nH]1` [Example 168, 4,5-Dimethyl-2-{5-methyl-2-[4-(1-methyl-piperidin-4-yl)-butoxy]-pyridin-4-yl}-1H-benzoimidazole], the Ki worked out at 6 nM.

Turning to `CN1CCN(CCCOc2ccc(-c3nc4ccccc4[nH]3)cc2F)CC1` [Example 27, 2-{3-Fluoro-4-[3-(4-methyl-piperazin-1-yl)-propoxy]-phenyl}-1H-benzoimidazole], the Ki is 74 nM.

As to `Cc1cc(C)c2nc(-c3cccc(OCCCCC4CCN(C)CC4)c3C)[nH]c2c1` [Example 99, 5,7-Dimethyl-2-{2-methyl-3-[4-(1-methyl-piperidin-4-yl)-butoxy]-phenyl}-1H-benzoimidazole], the Ki stood at 38 nM.

Consider `Cc1cc(Cl)cc2[nH]c(-c3ccc(OCCCC4=CCN(C)CC4)nc3)nc12` [Example 123, 6-Chloro-4-methyl-2-{6-[3-(1-methyl-1,2,3,6-tetrahydro-pyridin-4-yl)-propoxy]-pyridin-3-yl}-1H-benzoimidazole], for which the Ki is 67 nM.

As to `COc1cc(OCCCC2CCN(C)CC2)ncc1-c1nc2c(C)c(F)ccc2[nH]1` [Example 120, 5-Fluoro-2-{4-methoxy-6-[3-(1-methyl-piperidin-4-yl)-propoxy]-pyridin-3-yl}-4-methyl-1H-benzoimidazole], the inhibition constant (Ki) was determined as 94 nM.

With `COc1cc(-c2nc3cc(Cl)c(F)cc3[nH]2)ccc1OCCCN1CCN(C)CC1` [Example 50, 5-Chloro-6-fluoro-2-{3-methoxy-4-[3-(4-methyl-piperazin-1-yl)-propoxy]-phenyl}-1H-benzoimidazole], the inhibitory constant (Ki) was determined as 187 nM.

`CN1CCN(CCCOc2ccc(-c3nc4ccccc4[nH]3)c(Cl)c2)CC1` [Example 49, 2-{2-Chloro-4-[3-(4-methyl-piperazin-1-yl)-propoxy]-phenyl}-1H-benzoimidazole]: the Ki turned out to be 173 nM.
